# Legend:
# [1] = test system: breast cancer MDA-MB-468 cells; conditions: disclosed in CN 116942819; cited from earlier work
# [2] = test system: T cells; conditions: disclosed in CN 116942819; cited from earlier work
# [3] = test system: breast cancer MDA-MB-231 cells; conditions: disclosed in CN 116942819; cited from earlier work
# [4] = target: Wild-type human active MASTL (Homo sapiens (Human), UniProt Q96GX5); assay: MASTL activity assay; assay type: biochemical; conditions: ATP 18 μM, biotin tagged 40-mer ENSA peptide 10 nM, 60 minutes at room temperature, HTRF/FRET readout
# Chain of Wild-type human active MASTL (Q96GX5 whole entry): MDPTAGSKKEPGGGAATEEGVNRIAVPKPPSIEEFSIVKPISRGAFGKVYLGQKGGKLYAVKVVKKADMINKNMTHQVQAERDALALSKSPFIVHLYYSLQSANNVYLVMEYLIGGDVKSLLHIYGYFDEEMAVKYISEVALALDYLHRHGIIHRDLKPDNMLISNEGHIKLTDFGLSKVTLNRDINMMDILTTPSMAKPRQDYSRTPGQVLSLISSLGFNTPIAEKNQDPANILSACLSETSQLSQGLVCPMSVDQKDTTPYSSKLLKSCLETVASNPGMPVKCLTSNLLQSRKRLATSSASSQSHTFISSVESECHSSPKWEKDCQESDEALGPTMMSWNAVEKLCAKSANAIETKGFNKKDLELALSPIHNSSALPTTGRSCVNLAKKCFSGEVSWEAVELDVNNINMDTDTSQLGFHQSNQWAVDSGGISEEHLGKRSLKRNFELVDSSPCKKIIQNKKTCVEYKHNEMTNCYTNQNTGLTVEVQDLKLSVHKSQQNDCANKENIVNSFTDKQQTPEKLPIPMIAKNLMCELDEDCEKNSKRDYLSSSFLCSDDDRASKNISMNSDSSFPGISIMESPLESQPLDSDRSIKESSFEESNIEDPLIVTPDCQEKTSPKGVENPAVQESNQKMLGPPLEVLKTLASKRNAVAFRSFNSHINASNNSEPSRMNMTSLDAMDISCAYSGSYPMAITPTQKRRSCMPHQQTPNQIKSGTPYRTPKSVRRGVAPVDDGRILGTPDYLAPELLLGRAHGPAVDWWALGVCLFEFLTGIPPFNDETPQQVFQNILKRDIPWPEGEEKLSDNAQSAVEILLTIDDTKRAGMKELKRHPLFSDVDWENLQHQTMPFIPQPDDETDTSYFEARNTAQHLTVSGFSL
# Experimental: Wild-type human active MASTL (154 pM) was incubated in assay buffer (50 mM HEPES, 100 mM NaCl, 0.1 mM EGTA, 10 mM MgCl2, 0.01% Tween-20, 0.5 mM TCEP, pH 7.5) with biotin tagged 40-mer ENSA peptide (10 nM), test compound and ATP (18 μM) for 60 minutes at room temperature. Test compounds were assayed using a 12-point dose range consisting of a 0, DMSO control and 10 sequential doses consisting from 0.0005, 0.002, 0.005, 0.014, 0.04, 0.12, 0.37, 1.11, 3.33 and 10 μM. The DMSO concentration was the same (1%) in all samples. An equal volume of detection buffer (assay buffer+267.5 pM Ab-K, 1.25 nM SA-D2, 20 mM EDTA and 400 mM KF) was added to stop the reaction to make a final volume of 20 μl, RT for 60 mins. Activity was measured using a plate reader (PerkinElmer EnSight) by the FRET signal generated between SA-D2 (streptavidin-D2) and Ab-K (anti-phospho-Serine 67 ENSA antibody (rabbit polyclonal, using standard techniques by a commercial supplier) conjugated to Cryptate). HTRF reagents (CisBio) were prepared as per the manufacturer recommendations. The 40-mer biotin-tagged ENSA peptide (synthesised by Bionics) used was based around Serine 67 on ENSA ([…]).
IC50 [4] [nM],SMILES,effect on the up-regulation of the interferon-induced PD-L1 expression [1],anti-tumor function of T cells [2],effect on PD-L1 expression of tumor cells which expressed PD-L1 in a high level and were not affected by interferon [3]
–,O=C(Nc1nc2ccccc2[nH]1)c1cccc(-n2cccc2)c1 [MKI-1],remarkable inhibition effect,effectively enhance the anti-tumor function of T cells,not possible to effect
1 to 500,"Cc1nc([C@@H](Nc2nc(N)nc(-c3ccc4cnc(C)n4c3)n2)C(C)C)c[nH]1 (single isomer, unassigned) [Example 155B, 6-(3-methylimidazo[1,5-a]pyridin-6-yl)-N4-[(1S or 1R)-2-methyl-1-(2-methyl-1H-imidazol-4-yl)propyl]-1,3,5-triazine-2,4-diamine]",–,–,–
